Reference: patent publication US20230059009A1, “INHIBITORS OF LIN28 AND METHODS OF USE THEREOF” (The Regents of the University of California, priority 2019, published 2023)

Assays:
LSCs = experiment: Colony forming capacity (CFC) of iMLL-AF9 LT-HSC derived LSCs; format: cell-based, mouse; settings: 200 nM Ara-C or 30 μM 1632, 48 h
Source text: In addition, Lin28 was independently found to be a key driver in MLL-associated leukemias (56). In order to further characterize the role of Lin28/let-7 in regulating AML, LSC proliferation and therapy resistance in vivo, we used a doxycycline (DOX) inducible, transgenic mouse model for MLL-AF9-driven AML (iMLL-AF9 (57)). In this model, long-term HSC (LT-HSC, Lin^−CD34^−[…] c-Kit^+ CD150^+ CD48^−) derived AML blasts closely mirror an LSC-like phenotype resulting in a particularly aggressive, Cytarabine (Ara-C) resistant AML (57). […] Moreover, relapsed AML cells arising from rLSCs after treatment with Ara-C (100 mg/kg) at d+60 were even further enriched in Lin28b expression (FIG. 2B). Additionally, levels of both, let-7a and let-7b miRNAs, negatively correlated with increased Lin28b in rLSCs (FIG. 2C) (10, 39). Our findings are consistent with papers reporting that increased Lin28 correlates with disease recurrence post chemotherapy in colon and liver cancer stem cells (22, 58).
As Lin28 is overexpressed human AML, LSCs and rLSCs, we sought to determine if genetic Lin28b or pharmacologic Lin28/let-7 inhibition via LN1632 can abrogate proliferation of LSCs and thus overcome their therapy resistance. […]

[1] = tested on: LIN28B-expressing Ewing Sarcoma (EwS); settings: recent report (72); cited from earlier work
CYP 2B6 = molecular target: T1, CYP 2B6 (Homo sapiens, UniProt P20813); experiment: CYP inhibition 2B6; format: in vitro ADME; design: unit not given here; settings: Conc. 30 uM
T1 sequence (P20813 1-491): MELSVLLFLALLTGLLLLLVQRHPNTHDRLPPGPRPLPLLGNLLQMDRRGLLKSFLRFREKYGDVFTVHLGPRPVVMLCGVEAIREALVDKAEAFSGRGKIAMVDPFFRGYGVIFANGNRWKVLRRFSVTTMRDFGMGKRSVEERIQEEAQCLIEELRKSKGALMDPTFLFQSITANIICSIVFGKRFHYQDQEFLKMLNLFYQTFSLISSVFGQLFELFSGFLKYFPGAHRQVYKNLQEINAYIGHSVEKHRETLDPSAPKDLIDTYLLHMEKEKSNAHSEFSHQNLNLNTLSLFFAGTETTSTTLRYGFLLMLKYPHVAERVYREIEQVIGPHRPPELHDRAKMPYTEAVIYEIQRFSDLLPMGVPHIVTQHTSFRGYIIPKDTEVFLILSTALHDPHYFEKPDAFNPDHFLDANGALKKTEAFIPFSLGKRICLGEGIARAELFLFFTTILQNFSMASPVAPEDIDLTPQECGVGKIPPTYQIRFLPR

CYP 1A2 = molecular target: T2, CYP 1A2 (Homo sapiens, UniProt P05177); experiment: CYP inhibition 1A2; format: in vitro ADME; design: unit not given here; settings: Conc. 30 uM
T2 sequence (P05177 1-516): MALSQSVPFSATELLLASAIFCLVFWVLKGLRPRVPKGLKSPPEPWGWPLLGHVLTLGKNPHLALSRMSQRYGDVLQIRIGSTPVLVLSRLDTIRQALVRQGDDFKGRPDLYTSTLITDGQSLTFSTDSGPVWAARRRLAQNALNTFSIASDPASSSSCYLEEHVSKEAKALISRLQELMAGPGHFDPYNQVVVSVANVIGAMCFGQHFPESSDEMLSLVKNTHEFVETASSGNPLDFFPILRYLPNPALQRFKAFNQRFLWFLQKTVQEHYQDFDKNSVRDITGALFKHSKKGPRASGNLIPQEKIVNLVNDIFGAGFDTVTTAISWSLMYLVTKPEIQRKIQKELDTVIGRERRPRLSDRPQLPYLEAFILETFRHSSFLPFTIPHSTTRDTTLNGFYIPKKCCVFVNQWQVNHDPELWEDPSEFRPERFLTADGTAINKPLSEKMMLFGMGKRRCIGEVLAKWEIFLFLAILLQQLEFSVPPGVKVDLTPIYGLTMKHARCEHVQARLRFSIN

[2] = molecular target: T3, LIN28B/pre-let-7a-2 binding (Homo sapiens, UniProt Q6ZN17); experiment: FRET assay, EGFP-tagged LIN28B and BHQ-1 labelled pre-let-7a-2; settings: doses 1.25 uM-20 uM; compared with LN1632
T3 construct: made in house; host or cells: stably transduced HEK cells; used as diluted protein lysate, not purified
T3 sequence (Q6ZN17 1-250): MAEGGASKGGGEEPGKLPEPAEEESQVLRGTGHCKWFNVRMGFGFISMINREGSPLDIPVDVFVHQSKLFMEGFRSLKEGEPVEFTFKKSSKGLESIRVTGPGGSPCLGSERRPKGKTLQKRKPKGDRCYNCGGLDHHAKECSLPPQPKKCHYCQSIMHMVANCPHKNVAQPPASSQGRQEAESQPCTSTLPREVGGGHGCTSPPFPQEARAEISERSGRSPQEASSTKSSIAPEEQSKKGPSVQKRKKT
Method: As described herein, compounds of formula (I) and (II) show Lin28/let-7 inhibitory activity in FRET assays in vitro and in LSCs and LSC-like Kasumi-1 cells. FRET assay was performed as previously described (51).
In order to improve binding and inhibitory capacity of a compound to LIN28b, we predicted the binding mode of LN1632 to LIN28B. […] With this model in hand, we synthesized novel compounds with improved binding capacity to Lin28b (JGJ002-JGJ008, FIG. 8). Compounds were screened using a previously described FRET-assay with an EGFP-tagged LIN28B as donor and a BHQ-1 quencher labelled pre-let-7a-2 (pre-let-7a-2-BHQ1) as acceptor (51). Briefly, recombinant LIN28B-EGFP was harvested from stably transduced HEK cells and diluted with binding buffer (300 mM NaCl, 25 mM HEPES pH 7.2, 10 μM ZnCl2, 1% Odyssey Blocking Buffer, 0.05% Tween 20, 0.5 mM TCEP) in order to adjust ideal FRET-quenching signal intensity. Protein lysate and compounds (JGJ001-JGJ008) were pre-incubated in doses ranging from 1.25 uM-20 uM for 20 min in 100 uL diluted protein lysate. Subsequently pre-let-7a-2-BHQ1 was added to the mixture (at 6.25 nM) and EGFP-LIN28B donor emission was measured using a Tecan Spark Plate Reader ([…], excitation at 488 nm, emission read-out at […], 30 flashes/s). […] Increased endogenous let-7 miRNA levels can target a panoply of LCS and cancer stem cell hallmark genes thus inhibiting tumor growth.
To test the structure-activity relationship, 39 LN1632-related analogs (JGJ001-39) were synthesized and their potency and specificity to inhibit LIN28B-RNA binding activity and upregulate mature let-7 miRNA levels was measured. […] The dual luciferase reporter assay was performed as previously described (89).

Row | CYP inhibition 2B6 (CYP 2B6) | CYP inhibition 1A2 (CYP 1A2) | Compound | Colony forming capacity cell numbers (CFCs) of LSCs (LSCs) | Suppression of Ewing Sarcoma [1] | Inhibition of LIN28B binding to pre-let-7a (FRET signal) [2]
1 |  |  | CC(=O)N(C)c1cccc(-c2ccc3nnc(C)n3n2)c1 [LN1632] | significantly abrogated CFCs of LSCs | selectively suppresses LIN28B-expressing Ewing Sarcoma (EwS) but not LIN28B depleted EwS | 
2 | 67.27 | 96.4 | Cc1cnc2ccc(-c3cccc(F)c3)nn12 [JGJ015, 6-(3-Fluorophenyl)-3-methylimidazo[1,2-b]pyridazine] |  |  | 
3 | 45.39 | 97.3 | CC(=O)Nc1cccc(-c2ccc3ncc(C)n3n2)c1 [JGJ007, N-(3-(3-Methylimidazo[1,2-b]pyridazin-6-yl)phenyl)acetamide] |  |  | greater inhibition of the LIN28B/pre-let-7a2 binding than the original compound LN1632
